Assay results from patent US10308639B2, “Phosphatidylinositol 3-kinase inhibitors” (Gilead Sciences, Inc., priority 2014, dated 2019).
Where two headings read alike, the source gives them in different places.

Assays:
PI3Kγ = molecular target: T1, PI3Kγ (Homo sapiens, UniProt P48736); assay: TR-FRET enzymatic activity assay, PI3Kγ; format: biochemical
T1 construct: made in house
Experimental: The compounds of formula (I) were characterized for their enzymatic activity against the PI3K isoforms. The activities were measured using a time-resolved fluorescence resonance energy transfer (TR-FRET) assay.

PI3Kδ = molecular target: T2, PI3Kδ (Homo sapiens, UniProt O00329); assay: TR-FRET enzymatic activity assay, PI3Kδ; format: biochemical; conditions: Table 2a; same assay
T2 construct: made in house
T2 sequence (O00329 whole entry): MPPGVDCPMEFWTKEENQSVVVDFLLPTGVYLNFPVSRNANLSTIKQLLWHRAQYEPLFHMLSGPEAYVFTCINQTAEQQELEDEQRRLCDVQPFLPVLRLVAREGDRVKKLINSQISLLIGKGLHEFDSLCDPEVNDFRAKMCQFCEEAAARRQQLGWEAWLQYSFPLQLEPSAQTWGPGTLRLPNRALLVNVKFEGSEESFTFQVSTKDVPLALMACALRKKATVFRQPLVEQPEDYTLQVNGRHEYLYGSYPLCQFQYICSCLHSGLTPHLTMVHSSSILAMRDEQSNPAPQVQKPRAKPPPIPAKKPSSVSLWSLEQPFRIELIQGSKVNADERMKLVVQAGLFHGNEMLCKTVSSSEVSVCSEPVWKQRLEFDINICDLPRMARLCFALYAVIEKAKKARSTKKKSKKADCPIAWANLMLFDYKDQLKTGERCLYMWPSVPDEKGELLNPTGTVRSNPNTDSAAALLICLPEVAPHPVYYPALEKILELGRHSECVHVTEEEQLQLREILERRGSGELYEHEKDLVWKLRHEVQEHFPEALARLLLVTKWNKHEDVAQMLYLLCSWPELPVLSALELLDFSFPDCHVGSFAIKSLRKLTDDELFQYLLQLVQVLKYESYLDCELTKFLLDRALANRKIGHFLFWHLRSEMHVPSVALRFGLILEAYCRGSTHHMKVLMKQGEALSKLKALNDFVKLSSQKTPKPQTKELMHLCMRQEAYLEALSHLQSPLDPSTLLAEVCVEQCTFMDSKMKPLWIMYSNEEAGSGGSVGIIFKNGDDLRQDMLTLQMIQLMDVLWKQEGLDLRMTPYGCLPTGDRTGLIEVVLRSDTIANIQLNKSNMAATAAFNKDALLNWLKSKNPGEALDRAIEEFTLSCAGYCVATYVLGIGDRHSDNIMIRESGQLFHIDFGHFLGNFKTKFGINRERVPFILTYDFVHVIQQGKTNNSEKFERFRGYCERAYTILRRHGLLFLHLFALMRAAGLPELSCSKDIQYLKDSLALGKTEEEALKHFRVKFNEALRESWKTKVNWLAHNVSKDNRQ
T2 sequence (P27986 whole entry partner): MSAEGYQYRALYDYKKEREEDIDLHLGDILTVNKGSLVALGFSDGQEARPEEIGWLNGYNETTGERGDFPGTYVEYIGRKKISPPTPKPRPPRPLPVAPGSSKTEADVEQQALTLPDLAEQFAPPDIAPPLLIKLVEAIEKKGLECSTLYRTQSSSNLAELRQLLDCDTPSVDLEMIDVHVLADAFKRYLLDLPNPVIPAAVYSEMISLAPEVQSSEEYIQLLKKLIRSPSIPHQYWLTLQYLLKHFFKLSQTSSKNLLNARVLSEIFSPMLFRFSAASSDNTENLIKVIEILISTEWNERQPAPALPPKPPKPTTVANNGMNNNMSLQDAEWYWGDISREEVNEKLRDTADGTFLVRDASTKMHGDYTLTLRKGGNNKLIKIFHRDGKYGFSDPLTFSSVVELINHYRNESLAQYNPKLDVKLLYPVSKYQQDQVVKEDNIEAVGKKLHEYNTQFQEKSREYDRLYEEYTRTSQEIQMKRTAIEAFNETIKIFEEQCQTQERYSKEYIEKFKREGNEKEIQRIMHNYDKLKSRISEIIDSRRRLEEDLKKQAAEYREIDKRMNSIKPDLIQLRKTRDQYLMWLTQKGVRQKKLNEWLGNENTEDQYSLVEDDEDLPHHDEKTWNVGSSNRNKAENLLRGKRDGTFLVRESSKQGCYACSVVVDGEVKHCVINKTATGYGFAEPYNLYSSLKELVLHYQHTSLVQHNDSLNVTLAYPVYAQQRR

[1] = Table 2, TR-FRET, 2x Km ATP, 30 minutes at 25° C., read-out: PI3Kγ IC50
[2] = Table 2a, same assay, read-out: PI3Kγ IC50

T1 sequence (P48736 whole entry): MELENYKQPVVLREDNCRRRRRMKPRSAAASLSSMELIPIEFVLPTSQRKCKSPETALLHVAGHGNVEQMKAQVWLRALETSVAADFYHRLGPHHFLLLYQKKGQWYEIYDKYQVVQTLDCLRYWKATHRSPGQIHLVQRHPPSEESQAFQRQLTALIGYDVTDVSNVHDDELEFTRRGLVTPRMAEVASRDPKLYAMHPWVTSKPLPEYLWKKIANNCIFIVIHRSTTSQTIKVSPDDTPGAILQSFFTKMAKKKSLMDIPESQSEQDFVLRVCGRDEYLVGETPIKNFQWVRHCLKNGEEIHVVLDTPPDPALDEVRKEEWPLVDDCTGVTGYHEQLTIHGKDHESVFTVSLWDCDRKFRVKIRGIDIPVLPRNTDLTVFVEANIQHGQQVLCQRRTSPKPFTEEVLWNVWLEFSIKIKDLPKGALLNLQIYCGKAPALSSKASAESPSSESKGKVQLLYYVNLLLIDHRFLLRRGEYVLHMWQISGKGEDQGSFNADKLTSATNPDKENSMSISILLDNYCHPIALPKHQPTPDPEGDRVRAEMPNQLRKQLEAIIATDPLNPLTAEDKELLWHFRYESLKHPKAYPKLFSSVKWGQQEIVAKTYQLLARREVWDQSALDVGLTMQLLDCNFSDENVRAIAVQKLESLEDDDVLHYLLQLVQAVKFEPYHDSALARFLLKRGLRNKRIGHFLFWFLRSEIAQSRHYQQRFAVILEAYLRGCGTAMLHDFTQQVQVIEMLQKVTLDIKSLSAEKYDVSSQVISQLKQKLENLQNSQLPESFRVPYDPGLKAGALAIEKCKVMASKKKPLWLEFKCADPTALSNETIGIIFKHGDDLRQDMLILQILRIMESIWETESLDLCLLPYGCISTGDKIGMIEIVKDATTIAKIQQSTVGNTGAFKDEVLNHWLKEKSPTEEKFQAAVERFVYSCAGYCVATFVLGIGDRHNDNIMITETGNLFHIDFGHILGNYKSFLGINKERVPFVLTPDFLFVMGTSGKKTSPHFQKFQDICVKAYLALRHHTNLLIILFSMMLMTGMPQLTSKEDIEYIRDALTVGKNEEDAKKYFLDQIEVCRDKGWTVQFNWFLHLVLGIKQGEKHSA

| IC50 (PI3Kγ; [1]) [µM] | IC50 (PI3Kγ; [2]) [µM] | SMILES | further results |
| --- | --- | --- | --- |
| 0.051 | – | C[C@H](Nc1nc(N)nc(N)c1C#N)c1nc2cccc(Cl)c2c(=O)n1-c1cc[nH]n1 [Compound 16, (S)-2,4-diamino-6-((1-(5-chloro-4-oxo-3-(1H-pyrazoyl)-3,4-dihydroquinazolin-2-yl)ethyl)amino)pyrimidine-5-carbonitrile] | – |
| 0.19 | – | N#Cc1c(N)nc(N)nc1N[C@H](c1nc2cccc(Cl)c2c(=O)n1-c1cc[nH]n1)C1CC1 [Compound 18, (S)-2,4-diamino-6-(((5-chloro-4-oxo-3-(1H-pyrazol-3-yl)-3,4-dihydroquinazolin-2-yl)(cyclopropyl)methyl)amino)pyrimidine-5-carbonitrile] | – |
| 5.9 | – | Nc1nc(N)c(Cl)c(N[C@H](c2nc3cccc(Cl)c3c(=O)n2-c2cc[nH]n2)C2CC2)n1 [Compound 20, (S)-5-chloro-2-(cyclopropyl((2,6-diamino-5-chloropyrimidin-4-yl)amino)methyl)-3-(1H-pyrazol-3-yl)quinazolin-4(3H)-one] | – |
| 0.27 | – | Cc1nc(N)nc(N[C@H](c2nc3cccc(Cl)c3c(=O)n2-c2cc[nH]n2)C2CC2)c1C#N [Compound 28, (S)-2-amino-4-(((5-chloro-4-oxo-3-(1H-pyrazol-3-yl)-3,4-dihydroquinazolin-2-yl)(cyclopropyl)methyl)amino)-6-methylpyrimidine-5-carbonitrile] | – |
| 1.3 | – | N#Cc1c(Cl)nc(N)nc1N[C@H](c1nc2cccc(Cl)c2c(=O)n1-c1cc[nH]n1)C1CC1 [Compound 63, (S)-2-amino-4-chloro-6-(((5-chloro-4-oxo-3-(1H-pyrazol-3-yl)-3,4-dihydroquinazolin-2-yl)(cyclopropyl)methyl)amino)pyrimidine-5-carbonitrile] | – |
| – | – | C[C@H](Nc1nc(N)nc(N)c1Cl)c1nc2ccc(F)cc2c(=O)n1-c1cc[nH]n1 [Compound 111, (S)-2-(1-((2,6-diamino-5-chloropyrimidin-4-yl)amino)ethyl)-6-fluoro-3-(1H-pyrazol-3-yl)quinazolin-4(3h)-one] | IC50 (PI3Kγ): > 10 µM |
| – | – | C[C@H](Nc1nc(N)nc(N)c1Cl)c1nc2c(Cl)cc(F)cc2c(=O)n1-c1cc[nH]n1 [Compound 123, (S)-8-chloro-2-(1-((2,6-diamino-5-chloropyrimidin-4-yl)amino)ethyl)-6-fluoro-3-(1H-pyrazol-3-yl)quinazolin-4(3h)-one] | IC50 (PI3Kγ): > 10 µM |
| 0.63 | – | N#Cc1c(N)nc(N)nc1N[C@H](c1nc2c(Cl)cc(F)cc2c(=O)n1-c1cc[nH]n1)C1CC1 [Compound 125, (S)-2,4-diamino-6-(((8-chloro-6-fluoro-4-oxo-3-(1H-pyrazol-3-yl)-3,4-dihydroquinazolin-2-yl)(cyclopropyl)methyl)amino)pyrimidine-5-carbonitrile] | – |
| – | – | C[C@H](Nc1nc(N)nc(N)c1Cl)c1nc2cccc(F)c2c(=O)n1-c1cc[nH]n1 [Compound 151, (S)-2-(1-((2,6-diamino-5-chloropyrimidin-4-yl)amino)ethyl)-5-fluoro-3-(1H-pyrazol-3-yl)quinazolin-4(3H)-one] | IC50 (PI3Kγ): > 10 µM |
| – | – | C[C@H](Nc1nc(N)nc(N)c1Cl)c1nc2c(F)cccc2c(=O)n1-c1cc[nH]n1 [Compound 153, (S)-2-(1-((2,6-diamino-5-chloropyrimidin-4-yl)amino)ethyl)-8-fluoro-3-(1H-pyrazol-3-yl)quinazolin-4(3H)-one] | IC50 (PI3Kγ): > 10 µM |
| – | > 10 | Nc1nc(N)c(Cl)c(N[C@@H](c2nc3cccc(Cl)c3c(=O)n2-c2cc[nH]n2)C2CC2)n1 [Compound 160, (R)-5-chloro-2-(cyclopropyl((2,6-diamino-5-chloropyrimidin-4-yl)amino)methyl)-3-(1H-pyrazol-3-yl)quinazolin-4(3H)-one] | – |
| – | – | C[C@H](Nc1cc(N)nc(N)n1)c1nc2cccc(Cl)c2c(=O)n1-c1cc[nH]n1 [Compound 163, (S)-5-chloro-2-(1-((2,6-diaminopyrimidin-4-yl)amino)ethyl)-3-(1H-pyrazol-3-yl)quinazolin-4(3H)-one] | IC50 (PI3Kγ): > 10 µM |
| – | > 10 | C[C@H](Nc1nc(N)nc(C(F)(F)F)c1C#N)c1nc2cccc(Cl)c2c(=O)n1-c1cc[nH]n1 [Compound 168, (S)-2-amino-4-((1-(5-chloro-4-oxo-3-(1H-pyrazol-3-yl)-3,4-dihydroquinazolin-2-yl)ethyl)amino)-6-(trifluoromethyl)pyrimidine-5-carbonitrile] | – |
| – | 1.1 | N#Cc1c(N[C@H](c2nc3cccc(Cl)c3c(=O)n2-c2cc[nH]n2)C2CC2)nc(N)nc1C(F)F [Compound 171, (S)-2-amino-4-(((5-chloro-4-oxo-3-(1H-pyrazol-3-yl)-3,4-dihydroquinazolin-2-yl)(cyclopropyl)methyl)amino)-6-(difluoromethyl)pyrimidine-5-carbonitrile] | – |
| – | 3.5 | N#Cc1c(N[C@H](c2nc3c(Cl)cc(F)cc3c(=O)n2-c2cc[nH]n2)C2CC2)nc(N)nc1C(F)F [Compound 172, (S)-2-amino-4-(((8-chloro-6-fluoro-4-oxo-3-(1H-pyrazol-3-yl)-3,4-dihydroquinazolin-2-yl)(cyclopropyl)methyl)amino)-6-(difluoromethyl)pyrimidine-5-carbonitrile] | – |
| – | 1.3 | C[C@H](Nc1nc(N)nc(C(F)F)c1C#N)c1nc2c(Cl)cc(F)cc2c(=O)n1-c1cc[nH]n1 [Compound 173, (S)-2-amino-4-((1-(8-chloro-6-fluoro-4-oxo-3-(1H-pyrazol-3-yl)-3,4-dihydroquinazolin-2-yl)ethyl)amino)-6-(difluoromethyl)pyrimidine-5-carbonitrile] | – |
| – | – | C[C@@H](Nc1nc(N)nc(N)c1Cl)c1nc2c(Cl)cc(F)cc2c(=O)n1-c1cc[nH]n1 [Compound 174, (R)-8-chloro-2-(1-((2,6-diamino-5-chloropyrimidin-4-yl)amino)ethyl)-6-fluoro-3-(1H-pyrazol-3-yl)quinazolin-4(3H)-one] | IC50 (PI3Kγ): > 10 µM |
| – | 7.8 | CC[C@H](Nc1nc(N)nc(C(F)F)c1C#N)c1nc2c(Cl)cc(F)cc2c(=O)n1-c1cc[nH]n1 [Compound 180, (S)-2-amino-4-((1-(8-chloro-6-fluoro-4-oxo-3-(1H-pyrazol-3-yl)-3,4-dihydroquinazolin-2-yl)propyl)amino)-6-(difluoromethyl)pyrimidine-5-carbonitrile] | – |
| – | 4.3 | C[C@H](Nc1nc(N)nc(C(F)F)c1C#N)c1nc2c(F)cccc2c(=O)n1-c1cc[nH]n1 [Compound 186, (S)-2-amino-4-(difluoromethyl)-6-((1-(8-fluoro-4-oxo-3-(1H-pyrazol-3-yl)-3,4-dihydroquinazolin-2-yl)ethyl)amino)pyrimidine-5-carbonitrile] | – |
| – | 2.3 | C[C@H](Nc1nc(N)nc(C(F)F)c1C#N)c1nc2c(F)cc(F)cc2c(=O)n1-c1cc[nH]n1 [Compound 187, (S)-2-amino-4-((1-(6,8-difluoro-4-oxo-3-(1H-pyrazol-3-yl)-3,4-dihydroquinazolin-2-yl)ethyl)amino)-6-(difluoromethyl)pyrimidine-5-carbonitrile] | IC50 (PI3Kδ): 0.006 µM |
| – | > 10 | C[C@H](Nc1nc(N)nc(C(F)F)c1C#N)c1nc2cccc(F)c2c(=O)n1-c1cc[nH]n1 [Compound 191, (S)-2-amino-4-(difluoromethyl)-6-((1-(5-fluoro-4-oxo-3-(1H-pyrazol-3-yl)-3,4-dihydroquinazolin-2-yl)ethyl)amino)pyrimidine-5-carbonitrile] | – |
| – | 8 | C[C@H](Nc1nc(N)nc(C(F)F)c1C#N)c1nc2ccc(F)cc2c(=O)n1-c1cc[nH]n1 [Compound 193, (S)-2-amino-4-(difluoromethyl)-6-((1-(6-fluoro-4-oxo-3-(1H-pyrazol-3-yl)-3,4-dihydroquinazolin-2-yl)ethyl)amino)pyrimidine-5-carbonitrile] | – |
| – | > 10 | C[C@H](Nc1nc(N)nc(C(F)F)c1Cl)c1nc2cc(F)cc(F)c2c(=O)n1-c1cc[nH]n1 [Compound 233, (S)-2-(1-((2-amino-5-chloro-6-(difluoromethyl)pyrimidin-4-yl)amino)ethyl)-5,7-difluoro-3-(1H-pyrazol-3-yl)quinazolin-4(3H)-one] | IC50 (PI3Kδ): 10 µM |
| – | > 10 | C[C@H](Nc1nc(N)nc(C(F)F)c1Cl)c1nc2c(F)c(F)ccc2c(=O)n1-c1cc[nH]n1 [Compound 234, (S)-2-(1-((2-amino-5-chloro-6-(difluoromethyl)pyrimidin-4-yl)amino)ethyl)-7,8-difluoro-3-(1H-pyrazol-3-yl)quinazolin-4(3H)-one] | IC50 (PI3Kδ): 7.6 µM |
| – | > 10 | CC[C@H](Nc1nc(N)nc(N)c1Cl)c1nc2c(Cl)cc(F)cc2c(=O)n1-c1cc[nH]n1 [Compound 257, (S)-8-chloro-2-(1-((2,6-diamino-5-chloropyrimidin-4-yl)amino)propyl)-6-fluoro-3-(1H-pyrazol-3-yl)quinazolin-4(3H)-one] | – |

| SMILES | IC50 (PI3Kγ; [1]) [µM] | IC50 (PI3Kγ; [2]) [µM] | further results |
| --- | --- | --- | --- |
| C[C@H](Nc1ncnc(N)c1C#N)c1nc2cccc(Cl)c2c(=O)n1-c1cn[nH]c1 [Compound 2, (S)-4-amino-6-((1-(5-chloro-4-oxo-3-(1H-pyrazol-4-yl)-3,4-dihydroquinazolin-2-yl)ethyl)amino)pyrimidine-5-carbonitrile] | 0.99 | – | – |
| C[C@H](Nc1ncnc(N)c1C#N)c1nc2cccc(Cl)c2c(=O)n1-c1cc[nH]n1 [Compound 22, (S)-4-amino-6-((1-(5-chloro-4-oxo-3-(1H-pyrazol-3-yl)-3,4-dihydroquinazolin-2-yl)ethyl)amino)pyrimidine-5-carbonitrile] | 0.99 | – | – |
| C[C@H](Nc1nc(N)nc(N)c1Cl)c1nc2cccc(Cl)c2c(=O)n1-c1cc[nH]n1 [Compound 64, (S)-5-chloro-2-(1-((2,6-diamino-5-chloropyrimidin-4-yl)amino)ethyl)-3-(1H-pyrazol-3-yl)quinazolin-4(3H)-one] | 1.2 | – | – |
| C[C@H](Nc1nc(N)nc(N)c1Cl)c1nc2c(F)cc(F)cc2c(=O)n1-c1cc[nH]n1 [Compound 161, (S)-2-(1-((2,6-diamino-5-chloropyrimidin-4-yl)amino)ethyl)-6,8-difluoro-3-(1H-pyrazol-3-yl)quinazolin-4(3H)-one] | – | 4.4 | – |
